Test results reported in US7943797B2, “Products for the treatment of the iron chlorosis” (Tradecorp, S.A., priority 2006, dated 2011).

Columns and labels:
[1] = system: Soybean plants (Glycine max L. cv. Stine 0480) with induced Fe chlorosis; assay: Efficacy of Fe chelates to provide Fe to soybean plants in hydroponics: Fe content in plants; type: in vivo
Method: (§1) Soybean seeds (Glycine max L. cv. Stine 0480) were germinated at 30° C. and 60% RH on paper moistened with 1 M CaSO4 in dark for 2 days. Afterwards, seedlings were placed in 10 L containers (50 seedlings per container) filled with a 1/5 diluted EDTA buffered nutrient solution (macronutrients (mM)—1.0 Ca(NO3)2, 0.9 KNO3, 0.3 MgSO4, 0.1 KH2PO4; cationic micronutrients (μM)—5.0 EDTA/Fe^3+, 2.5 MnSO4, 1.0 CuSO4, 10 ZnSO4, 1.0 CoSO4, 1.0 NiCl2, 115.5 Na2EDTA; anionic micronutrients (μM)-35 NaCl, 10 H3BO3, 0.05 Na2MoO4; 0.1 mM HEPES) for 6 days. On the 7th day, in order to induce Fe chlorosis, seedlings were transferred to 12 L polypropylene buckets containing aerated full strength EDTA buffered nutrient solution but without Fe^3+-chelate. Plants were grown under these conditions until clear symptoms of Fe deficiency were observed (7 days) and then plants were placed in 2 L pots (6 plants per pot) covered with black plastic to avoid light exposure. The effect of different Fe chelates and doses were compared as Fe sources. Chelates used in the treatments were o,o-EDDHA/Fe^3+, o,p-EDDHA/Fe^3+, EDTA/Fe^3+ and Example 1/Fe^3+. The last one is the Fe chelate of the compound of the example 1: 2-(2-((2-hydroxybenzyl)amino)ethylamino)-2-(2-hydroxyphenyl)acetic acid (DCHA). Nutrient solution contained macronutrients and anionic micronutrients as for the seedling period and the following cationic micronutrients composition: (μM) 1.0 MnSO4, 0.5 CuSO4, 0.5 ZnSO4, 0.1 NiCl2 and 0.1 CoSO4. Also, 1 g·L^−1 of CaCO3 was added to the nutrient solution to buffer pH at 7.5 and to simulate conditions of a calcareous soil. Plants were grown for 21 days in this nutrient solution in a growth chamber provided with fluorescent and sodium vapour lamps with a 16 h/30° C. and 50% humidity day and 8 h/25° C. and 70% humidity night regime. Water was added every 2 days and the nutrient solution was renewed every 7 days. Treatments were replicated four times in a completely randomised design. Plants were harvested after 7, 14 and 21 days.
Root and shoot were separated and washed using Tween 80 (Merck) and HCl solution and fresh and dry (after oven dry procedure) weights were determined. Samples were ground and after dry digestion in a muffle furnace (480° C.), ashes are dissolved in HCl. Fe, Mn, Cu and Zn were analysed by atomic absorption spectrometry.

[2] = system: Soybean plants (Glycine max L. cv. Stine 0480) with induced Fe chlorosis; assay: Efficacy of Fe chelates to provide Fe to soybean plants in hydroponics: SPAD index; type: in vivo; conditions: for Regreening of plants (SPAD index): 20 days after treatment, regardless of the doses (5 and 10 μM)
Method: as §1
(§2) During the experiment, SPAD readings with a chlorophyll-meter (Minolta SPAD-502) were taken for all leaf stages (average of two or three readings per stage) every second day. Only values measured for the youngest fully open leaves (the 2nd stage at the 2nd day, the third at the 10th day and the fourth at the 20th day) are here presented (Table 1)

[3] = system: Soybean plants (Glycine max L. cv. Stine 0480) with induced Fe chlorosis; assay: Efficacy of Fe chelates to provide Fe to soybean plants in soil conditions: SPAD index; type: in vivo; conditions: for SPAD index / Recovery from chlorosis (SPAD): calcareous soil; for Recovery from chlorosis (SPAD): two days after the treatment application
Method: (§3) Soybean seeds (Glycine max L. cv. Stine 0480) were germinated at 30° C. and 60% RH on paper moistened with 1 M CaSO4 in dark for 2 days. Afterwards, seedlings were placed in 10 L containers (50 seedlings per container) filled with a 1/5 diluted EDTA buffered nutrient solution (macronutrients (mM)—1.0 Ca(NO3)2, 0.9 KNO3, 0.3 MgSO4, 0.1 KH2PO4; cationic micronutrients (μM)—5.0 EDTA/Fe^3+, 2.5 MnSO4, 1.0 CuSO4, 10 ZnSO4, 1.0 CoSO4, 1.0 NiCl2, 115.5 Na2EDTA; anionic micronutrients (μM)—35 NaCl, 10 H3BO3, 0.05 Na2MoO4; 0.1 mM HEPES) for 4 days. Then, in order to induce Fe chlorosis, nutrient solution without iron was used for two more days and then plants were transplanted in 1 L pots (3 plants per pot) containing 700 g of a calcareous soil ([…] calcium carbonate, 89 g·Kg^−1 CaCO3 active, pH 7.70) and 300 g of lime sand covered with black plastic to avoid light exposure. The effect of different Fe chelates were compared as Fe sources: o,o-EDDHA/Fe^3+, o,p-EDDHA/Fe^3+, EDTA/Fe^3+ and Example 1/Fe^3+. The last one is the Fe chelate of the compound of the example 1: 2-(2-((2-hydroxybenzyl)amino)ethylamino)-2-(2-hydroxyphenyl)acetic acid. Plants were grown for 21 days in this soil conditions in a growth chamber provided with fluorescent and sodium vapour lamps with a 16 h/30° C. and 50% humidity day and 8 h/25° C. and 70% humidity night regime. Treatments were replicated five times in a completely randomised design. Single plants were harvested after 2, 7 and 21 days.
as §2, with “Values” for “Only values”, “the” for “the youngest fully open leaves (the”, “12th” for “10th”, “fourth and fifth” for “fourth”, “22th” for “20th”, “4).” for “1)”

[4] = system: Soybean plants (Glycine max L. cv. Stine 0480) with induced Fe chlorosis; assay: Efficacy of Fe chelates in soil conditions: shoot dry weight and Fe concentration in leaves; type: in vivo; conditions: calcareous soil, three sampling times
Method: as §3, with “Plants were grown for 21 days in this soil conditions in a growth chamber provided with fluorescent and sodium vapour lamps with a 16 h/30° C. and 50% humidity day and 8 h/25° C. and 70% humidity night regime. Treatments were replicated five times in a completely randomised design. Single plants were harvested after 2, 7 and 21 days.” left out
In each sampling time shoots were separated and washed using Tween 80 (Merck) and HCl solution and fresh and dry (after oven dry procedure) weights were determined. […] Fe, Mn, Cu and Zn were analysed by atomic absorption spectrometry.

[5] = compared with o,o-EDDHA/Fe^3+; Yunta et al. 2003; cited from earlier work
[6] = 5 μM chelate (low dose), 1st sampling 7 days after treatment
[7] = 5 μM chelate (low dose), 2nd sampling 14 days after treatment
[8] = 5 μM chelate (low dose), 3rd sampling 21 days after treatment
[9] = 10 μM chelate (high dose), 1st sampling 7 days after treatment
[10] = 10 μM chelate (high dose), 2nd sampling 14 days after treatment
[11] = 10 μM chelate (high dose), 3rd sampling 21 days after treatment
[12] = 5 μM chelate, 2 days after treatment (2nd stage)
[13] = 5 μM chelate, 10 days after treatment (3rd stage)
[14] = 5 μM chelate, 20 days after treatment (4th stage)
[15] = 10 μM chelate, 2 days after treatment (2nd stage)
[16] = 10 μM chelate, 10 days after treatment (3rd stage)
[17] = 10 μM chelate, 20 days after treatment (4th stage)
[18] = 2 days after treatment (2nd stage)
[19] = 12 days after treatment (3rd stage)
[20] = 22 days after treatment (4th stage)
[21] = 22 days after treatment (5th stage)

Structure (SMILES) | Fe content [1, 6] | Fe content [1, 7] | Fe content [1, 8] | Fe content [1, 9] | Fe content [1, 10] | Fe content [1, 11] | SPAD index [2, 12] | SPAD index [2, 13] | SPAD index [2, 14] | SPAD index [2, 15] | SPAD index [2, 16] | SPAD index [2, 17] | Regreening of plants (SPAD index) [2] | SPAD index [3, 18] | SPAD index [3, 19] | SPAD index [3, 20] | SPAD index [3, 21] | Recovery from chlorosis (SPAD) [3] | further results
O=C([O-])CN(CCN(CC(=O)[O-])CC(=O)[O-])CC(=O)[O-].[Fe+3] [EDTA/Fe^3+] | 14.2 c μg Fe per plant | 19.6 c μg Fe per plant | 22.6 c μg Fe per plant | 27.7 b μg Fe per plant | 32.6 b μg Fe per plant | 47.6 b μg Fe per plant | 6.8 bcd | 6.9 days | 11.4 c | 8.1 abc | 16.6 c | 19.9 b | – | – | – | – | – | – | –
O=C(O)C(NCCNCc1ccccc1O)c1ccccc1O (stereo not shown) [Example 1, 2-(2-((2-hydroxybenzyl)amino)ethylamino)-2-(2-hydroxyphenyl)acetic acid] | – | – | – | – | – | – | – | – | – | – | – | – | completely regreened | – | – | – | – | – | Efficacy against iron chlorosis ([3]; highly calcareous soil, only one treatment application): efficient to solve iron chlorosis in highly calcareous conditions; Speed of action to correct iron chlorosis ([2]; low doses, similar to o,p-EDDHA, higher than o,o-EDDHA): fast action to correct iron chlorosis
O=C([O-])C(NCCNCc1ccccc1[O-])c1ccccc1[O-].[Fe+3] (stereo not shown) [Example 1/Fe^3+] | 57.4 a μg Fe per plant | 152 a μg Fe per plant | 268 a μg Fe per plant | 69.3 a μg Fe per plant | 136 a μg Fe per plant | 235 a μg Fe per plant | 8.4 abc | 32.8 a | 34.8 a | 8.8 ab | 35.7 a | 35.0 a | – | 23.9 | 41.0 | 34.1 | 26.6 | better recovery | Fe provided to plants compared with the other treatments ([1]; hydroponics, lower Fe application (5 μM)): significantly higher amounts of iron and faster; Dry weight of shoots (FIG. 2) [4]: efficient Fe chlorosis corrector
O=C([O-])C(NCCNC(C(=O)[O-])c1ccccc1[O-])c1ccccc1[O-].[Fe+3] (stereo not shown) [o,o-EDDHA/Fe^3+] | 26.0 bc μg Fe per plant | 83.6 b μg Fe per plant | 202 b μg Fe per plant | 61.4 a μg Fe per plant | 129 a μg Fe per plant | 254 a μg Fe per plant | 6.2 cd | 26.7 b | 30.2 a | 9.1 ab | 31.6 ab | 32.4 a | completely regreened | 22.4 | 42.1 | 34.1 | 28.8 | – | –
O=C([O-])C(NCCNC(C(=O)[O-])c1ccccc1[O-])c1ccc(O)cc1.[Fe+3] (stereo not shown) [o,p-EDDHA/Fe^3+] | 43.0 ab μg Fe per plant | 128 a μg Fe per plant | 223 b μg Fe per plant | 77.8 a μg Fe per plant | 129 a μg Fe per plant | 259 a μg Fe per plant | 8.1 abc | 30.9 ab | 32.2 a | 10.4 a | 33.1 a | 32.9 a | completely regreened | 25.8 | 41.2 | 33.0 | 21.0 | better recovery | Stability of the Fe3+ chelate [5]: lower stability
